Source: patent US20070027181A1, “Benzylisoquinoline derivative- or bisbenzylisoquinoline derivative-containing psychotropic agent, analgesic and/or antiphlogistic, and health food” (EDUCATION CENTER OF TRADITIONAL, priority 2004, published 2007)

What was measured:
mice [1] = assay: tail flick test; format: in vivo, Male ICR mice; conditions: 15 minutes after administration, cut off time 10 seconds
Protocol: In the following Examples, all extracts and drugs used were dissolved in physiological saline before use for i.p. administration and the dose was 0.1 ml of physiological saline per 10 g of mouse body weight in either case. All extracts and drugs were suspended in physiological saline containing 1% sodium carboxymethylcellulose before use for oral administration and the dose was 0.1 ml of 1% sodium carboxymethylcellulose-containing physiological saline suspension per 10 g of mouse body weight in either case. Male ICR mice (Japan SLC) having a body weight of 25 to 30 g were used in the tests below unless otherwise stated, and were fed in advance at a room temperature of 23±1° C. and a relative humidity of 55±5% in the environment of a cycle of 12-hour-light from 7 a.m. to 7 p.m. and 12-hour-dark from 7 p.m. to 7 a.m. for 3 to 5 days. […]
A tail flick test is a method in which, when radiant heat stimulation is locally added to a part of a tail 1 to 2 cm away from the tail root part of a mouse, a reaction of raising a tail as a provisional pain reaction is manifested, and anti-invasion action is determined by utilizing this reaction.
Seven to nine mice per group were used. […] The reaction that a mouse raised a tail upon addition of radiant heat was regarded as a provisional pain reaction, and a time until its manifestation (latency time) was measured. […]

mice [2] = assay: forced swimming test (antidepressive action); format: in vivo, Male ICR mice; conditions: 100 mg/kg i.p., 6-minute period
Protocol: In the following Examples, all extracts and drugs used were dissolved in physiological saline before use for i.p. administration and the dose was 0.1 ml of physiological saline per 10 g of mouse body weight in either case. All extracts and drugs were suspended in physiological saline containing 1% sodium carboxymethylcellulose before use for oral administration and the dose was 0.1 ml of 1% sodium carboxymethylcellulose-containing physiological saline suspension per 10 g of mouse body weight in either case. Male ICR mice (Japan SLC) having a body weight of 25 to 30 g were used in the tests below unless otherwise stated, and were fed in advance at a room temperature of 23±1° C. and a relative humidity of 55±5% in the environment of a cycle of 12-hour-light from 7 a.m. to 7 p.m. and 12-hour-dark from 7 p.m. to 7 a.m. for 3 to 5 days. The mice were allowed to have water and feed freely.
Forced swimming tests were conducted according to the method of Porsolt et al. A mouse was placed in a cylindrical glass water tank of 10 cm in diameter and 25 cm in height (water temperature: 23° C.) filled with water to a depth of 10 cm and forced to swim therein. […] Each mouse was forced to swim 15 and 30 minutes after administration, and the immobile times during the 6-minute periods immediately after forced swimming were determined. […]

What does the source list for `COc1ccc(C[C@@H]2c3cc(Oc4cc(C[C@@H]5c6cc(OC)c(OC)cc6CCN5C)ccc4O)c(OC)cc3CCN2C)cc1` [neferine]?
% MPE (mice [1]; 50 mg/kg i.p.): 5.0 ± 2.30%; % MPE (mice [1]; 100 mg/kg i.p.): 15.6 ± 2.89 %; Immobile time (sec) After 15 minutes (mice [2]; 15 minutes after administration): 165 s; Immobile time (sec) After 30 minutes (mice [2]; 30 minutes after administration): 170 s
